{"source": "patent US8293294B2", "about": "“Cosmetic composition comprising an aqueous extract of Chrysophyllum cainito” (Laboratories Clarins, priority 2008, dated 2012)", "tested_on": "CML (carboxymethyl adducts of lysine) induced by glyoxal", "test": "Inhibition of glyoxal-induced CML formation in cultured human dermal fibroblasts (immunofluorescence)", "type": "cell-based", "conditions": "aminoguanidine 10 mM, positive reference, fibroblasts with 200 μM glyoxal for 7 days", "description": "It is a question of evaluating the inhibitory activity of the extract of Chrysophyllum cainito with respect to CML (carboxymethyl adducts of lysine) induced by glyoxal as well as its protective effect on vimentin, the target of formation of the CMLs, in a culture of human dermal fibroblasts.\nNormal adult human fibroblasts were cultivated at 37° C. and 5% CO2 on a cover slip in a Petri dish of diameter 60 at a rate of 30000 cells per cover slip. The incubation medium is DMEM medium (Dulbecco modified Eagle medium) supplemented with 10% fetal calf serum and penicillin/streptomycin (50 μg/ml). […]\nThe cells were washed with PBS (phosphate-buffered saline) and permeabilized with 0.1% Triton X-100 for 10 minutes. […] Before taking the reading, 4 rinsings with PBS are performed.\nThe cover slips are mounted on the glass slide and then examined with the fluorescence microscope (Nikon Eclipse 50i). […] The photomicrographs are analyzed using Lucia image analysis software. The FITC fluorescence images indicate the regions of localization of vimentin. The TRITC fluorescence images indicate the regions of localization of CML. The DAPI fluorescence images indicate the cell nuclei and therefore the number of cells per field (see FIGS. 1 to 4).\nThis intensity of fluorescence is shown relative to the number of cells per micrograph. […]"}
{"smiles": "N=C(N)NN", "note": "[Aminoguanidine]", "values": [{"measurement": "inhibition of the formation of carboxymethyl adducts of lysine (CML), intensity of labeling", "value": "completely inhibits"}, {"measurement": "inhibition of the formation of carboxymethyl adducts of lysine (CML), intensity of labeling", "setting": "listed as aminoguanidine", "value": "completely inhibited"}]}
